Laboratory results taken from patent US11345691B2, “Prodrug modulators of the cystic fibrosis transmembrane conductance regulator protein and methods of use” (AbbVie Global Enterprises Ltd., priority 2019, dated 2022).

Test: Phase 1 first-in-human single ascending dose pharmacokinetic study (Pharmacokinetic Study 1)
Assay type: in vivo
Settings: after single oral 250 mg or 500 mg dose of Example 4—Prodrug; healthy adult subjects
Method: Evaluate the PK profile of Example 4, which is a prodrug of (5-{3-amino-5-[4-(trifluoromethoxy)benzene-1-sulfonyl]pyridin-2-yl}-1,3,4-oxadiazol-2-yl)methanol, in healthy human adult subjects.
Two open label Phase 1, first in human studies in adult healthy subjects were conducted to evaluate the safety, tolerability, and pharmacokinetics of single oral doses of Example 1 administered as an oral suspension and prodrug Example 4 capsule, respectively. Subjects were screened and enrolled based on pre-specified criteria for inclusion and exclusion. The safety in subjects was determined by clinical evaluation and by monitoring of laboratory parameters. Blood samples were longitudinally collected at pre-specified time points following the administration of Example 1 or Example 4—Prodrug to measure the plasma concentrations of study drug and determine the pharmacokinetics of Example 1 and Example 4—Prodrug.
For this study the inclusion criteria includes the following: • 1. […]
Plasma concentrations of Example 1 and Example 4—Prodrug were determined using validated methods. The values for the pharmacokinetic parameters of Example 1 or Example 4—Prodrug were determined using noncompartmental methods with WinNonlin Phoenix 8.1.

Plasma concentrations of intact Example 4—Prodrug: no quantifiable plasma concentrations
Structure (SMILES): CC(C)[C@H](N)C(=O)OCc1nnc(-c2ncc(S(=O)(=O)c3ccc(OC(F)(F)F)cc3)cc2N)o1 [Example 4, (5-{3-amino-5-[4-(trifluoromethoxy)benzene-1-sulfonyl]pyridin-2-yl}-1,3,4-oxadiazol-2-yl)methyl (2S)-2-amino-3-methylbutanoate]
